Where two headings read alike, the source gives them in different places.
What was measured:
[1] = target: BRD2 (Homo sapiens, UniProt P25440); test: Western blot of BRD2 levels after cellular dosing
[2] = system: BRD proteins in U2OS KO/rescue lysate; test: Degradation in non-denaturing lysates of U2OS KO/rescue cells; settings: non-denaturing U2OS KO/rescue lysate 4mg/ml, 10 µM, 30° C
[3] = system: BD2 domain from BRD2, BRD3, or BRD4 / neddylated CRL2^KLHDC2; test: Pulse-chase PROTAC-dependent ubiquitylation of BRD BD2 domains by neddylated CRL2^KLHDC2; settings: prodrug tested
[4] = target: BRD3 (Homo sapiens, UniProt Q15059); test: Western blot of BRD3 levels after cellular dosing
[5] = U2OS, read-out: BRD2 level, Western blot quantification (DMSO = 100), Fig S6d, U2OS KO/rescue Dose Response
[6] = read-out: BRD2 level, Western blot quantification (DMSO = 100), Fig S6e, PC3 KO/rescue Dose Response

Chain of BRD2 (P25440 whole entry): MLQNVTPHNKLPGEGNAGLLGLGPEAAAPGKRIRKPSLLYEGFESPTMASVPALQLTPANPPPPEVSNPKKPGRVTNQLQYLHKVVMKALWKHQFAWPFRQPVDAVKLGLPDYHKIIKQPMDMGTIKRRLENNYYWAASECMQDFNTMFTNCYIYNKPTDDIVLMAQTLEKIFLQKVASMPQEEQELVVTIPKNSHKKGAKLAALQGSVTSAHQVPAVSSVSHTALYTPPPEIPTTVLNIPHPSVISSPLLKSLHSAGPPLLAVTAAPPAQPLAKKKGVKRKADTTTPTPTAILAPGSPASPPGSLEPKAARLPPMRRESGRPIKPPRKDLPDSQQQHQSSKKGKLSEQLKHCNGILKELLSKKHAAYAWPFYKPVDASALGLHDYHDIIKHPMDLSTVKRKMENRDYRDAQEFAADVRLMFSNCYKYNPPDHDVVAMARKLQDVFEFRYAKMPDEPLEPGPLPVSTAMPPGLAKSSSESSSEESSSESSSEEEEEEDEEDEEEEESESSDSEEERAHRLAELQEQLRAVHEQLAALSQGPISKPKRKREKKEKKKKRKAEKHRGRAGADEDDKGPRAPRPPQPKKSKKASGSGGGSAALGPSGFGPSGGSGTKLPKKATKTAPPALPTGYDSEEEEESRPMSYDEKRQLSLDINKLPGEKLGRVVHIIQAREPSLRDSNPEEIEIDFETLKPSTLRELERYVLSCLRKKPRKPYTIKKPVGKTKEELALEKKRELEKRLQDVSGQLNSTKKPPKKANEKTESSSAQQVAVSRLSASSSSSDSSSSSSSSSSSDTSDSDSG
Chain of BRD3 (Q15059 whole entry): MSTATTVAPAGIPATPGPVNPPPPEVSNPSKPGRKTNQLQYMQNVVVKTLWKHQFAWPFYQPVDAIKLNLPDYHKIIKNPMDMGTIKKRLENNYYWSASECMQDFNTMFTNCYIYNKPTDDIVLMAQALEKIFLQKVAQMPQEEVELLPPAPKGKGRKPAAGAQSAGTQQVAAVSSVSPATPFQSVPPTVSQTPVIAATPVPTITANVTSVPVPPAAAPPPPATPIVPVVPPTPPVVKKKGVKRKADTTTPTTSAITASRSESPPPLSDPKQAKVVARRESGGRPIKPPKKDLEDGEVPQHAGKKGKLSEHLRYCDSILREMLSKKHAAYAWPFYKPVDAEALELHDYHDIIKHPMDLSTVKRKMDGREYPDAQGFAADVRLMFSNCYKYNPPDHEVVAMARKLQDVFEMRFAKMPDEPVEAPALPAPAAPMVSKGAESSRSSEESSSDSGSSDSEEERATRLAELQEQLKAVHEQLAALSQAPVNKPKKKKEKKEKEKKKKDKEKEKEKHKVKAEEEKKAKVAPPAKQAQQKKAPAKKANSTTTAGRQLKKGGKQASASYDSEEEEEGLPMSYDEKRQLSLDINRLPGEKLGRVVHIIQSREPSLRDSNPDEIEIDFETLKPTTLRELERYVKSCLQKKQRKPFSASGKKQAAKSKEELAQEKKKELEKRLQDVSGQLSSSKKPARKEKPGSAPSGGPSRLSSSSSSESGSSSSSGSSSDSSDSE

## COC(=O)CNC(=O)Cc1csc(-c2ccc3cccc(OCCN4CCN(C(=O)C[C@@H]5N=C(c6ccc(Cl)cc6)c6c(sc(C)c6C)-n6c(C)nnc65)CC4)c3c2)n1 [SJ46420]
[1]; SK-BR-3, 4 h, read-out: BRD2 level, Western blot quantification (DMSO = 100), Fig S6g, SKBR3 Time course, 1 uM, 4hr
  remaining activity at 1 µM: 79.4%
[1]; SK-BR-3, 4 h, read-out: BRD2 level, Western blot quantification (DMSO = 100), Fig S6g, SKBR3 Time course, 5 uM, 4hr
  remaining activity at 5 µM: 79.5%
[1]; SK-BR-3, 8 h, read-out: BRD2 level relative to DMSO (100%), SKBR3, 1µM, 8hr, Fig S6g
  remaining activity at 1 µM: 81 ± 7.6%
[1]; SK-BR-3, 8 h, read-out: BRD2 level relative to DMSO (100%), SKBR3, 5µM, 8hr, Fig S6g
  remaining activity at 5 µM: 90 ± 9.8%
[1]; SK-BR-3, 8 h, read-out: BRD2 level, Western blot quantification (DMSO = 100), Fig S6g, SKBR3 Time course, 1 uM, 8hr
  remaining activity at 1 µM: 76.3%
[1]; SK-BR-3, 8 h, read-out: BRD2 level, Western blot quantification (DMSO = 100), Fig S6g, SKBR3 Time course, 5 uM, 8hr
  remaining activity at 5 µM: 97.9%
[1]; SK-BR-3, read-out: BRD2 level, Western blot quantification (DMSO = 100), Fig S6i, SKBR3, 5uM
  remaining activity at 5 µM: 90.6%
[1]; U2OS KO/Rescue, 24 h dose
  BRD2 Dmax: ~ 100%
[1]; U2OS, 2 h, read-out: BRD2 level relative to DMSO (100%), U2OS, 5µM, 2hr, Fig S6h
  remaining activity at 5 µM: 102 ± 6.9%
[1]; U2OS, 2 h, read-out: BRD2 level, Western blot quantification (DMSO = 100), Fig S6h, U2OS Time course, 5uM, 2hr
  remaining activity at 5 µM: 108%
[1]; U2OS, 4 h, read-out: BRD2 level relative to DMSO (100%), U2OS, 5µM, 4hr, Fig S6h
  remaining activity at 5 µM: 104 ± 6.4%
[1]; U2OS, 4 h, read-out: BRD2 level, Western blot quantification (DMSO = 100), Fig S6h, U2OS Time course, 5uM, 4hr
  remaining activity at 5 µM: 109%
[1]; U2OS, 8 h, read-out: BRD2 level relative to DMSO (100%), U2OS, 5µM, 8hr, Fig S6i
  remaining activity at 5 µM: 120 ± 3.4%
[1]; U2OS, 8 h, read-out: BRD2 level relative to DMSO (100%), U2OS, 5µM, 8hr, Fig S6h
  remaining activity at 5 µM: 106 ± 8.4%
[1]; U2OS, 8 h, read-out: BRD2 level, Western blot quantification (DMSO = 100), Fig S6h, U2OS Time course, 5uM, 8hr
  remaining activity at 5 µM: 112%
[1]; U2OS, 24 h, read-out: BRD2 level relative to DMSO (100%), U2OS DC2KO (KLHDC2 knockout), 5µM, 24 h, Fig 6b
  remaining activity at 5 µM: 77 ± 2%
[1]; U2OS, 24 h, read-out: BRD2 level relative to DMSO (100%), U2OS KO/Rescue, 0.16µM, 24 h, Fig S6d
  remaining activity at 0.16 µM: 94 ± 6.9%
[1]; U2OS, 24 h, read-out: BRD2 level relative to DMSO (100%), U2OS KO/Rescue, 0.31µM, 24 h, Fig S6d
  remaining activity at 0.31 µM: 77 ± 6.6%
[1]; U2OS, 24 h, read-out: BRD2 level relative to DMSO (100%), U2OS KO/Rescue, 0.63µM, 24 h, Fig S6d
  remaining activity at 0.63 µM: 63 ± 3.8%
[1]; U2OS, 24 h, read-out: BRD2 level relative to DMSO (100%), U2OS KO/Rescue, 1µM + co-dosing 1µM MLN4924, 24 h, Fig 6d
  remaining activity at 1 µM: 350 ± 120%
[1]; U2OS, 24 h, read-out: BRD2 level relative to DMSO (100%), U2OS KO/Rescue, 1µM, 24 h, Fig 6c
  remaining activity at 1 µM: 88 ± 8.4%
[1]; U2OS, 24 h, read-out: BRD2 level relative to DMSO (100%), U2OS KO/Rescue, 1µM, 24 h, Fig 6d
  remaining activity at 1 µM: 68 ± 17%
[1]; U2OS, 24 h, read-out: BRD2 level relative to DMSO (100%), U2OS KO/Rescue, 1.3µM, 24 h, Fig S6d
  remaining activity at 1.3 µM: 54 ± 6.7%
[1]; U2OS, 24 h, read-out: BRD2 level relative to DMSO (100%), U2OS KO/Rescue, 2.5µM, 24 h, Fig S6d
  remaining activity at 2.5 µM: 37 ± 9.7%
[1]; U2OS, 24 h, read-out: BRD2 level relative to DMSO (100%), U2OS KO/Rescue, 5µM, 24 h, Fig S6d
  remaining activity at 5 µM: 12 ± 2.2%
[1]; U2OS, 24 h, read-out: BRD2 level relative to DMSO (100%), U2OS, 5µM, 24 h, Fig 6b
  remaining activity at 5 µM: 87 ± 5%
[1]; U2OS, 24 h, read-out: BRD2 level relative to DMSO (100%), U2OS, 5µM, 24hr, Fig S6h
  remaining activity at 5 µM: 77 ± 4.3%
[1]; U2OS, 24 h, read-out: BRD2 level, Western blot quantification (DMSO = 100), Fig S6h, U2OS Time course, 5uM, 24hr
  remaining activity at 5 µM: 79.8%
[1]; U2OS, read-out: BRD2 (DMSO = 100), U2OS KO/Rescue cells, Log SJ46420 (uM) 1.59176, Rep1, Rep2
  remaining activity at 1.59176 µM: 102%
[1]; U2OS, read-out: BRD2 (DMSO = 100), U2OS KO/Rescue cells, Log SJ46420 (uM) 1.89279, Rep1, Rep2
  remaining activity at 1.89279 µM: 99%
[1]; U2OS, read-out: BRD2 (DMSO = 100), U2OS KO/Rescue cells, Log SJ46420 (uM) 2.19382, Rep1, Rep2
  remaining activity at 2.19382 µM: 82.2%
[1]; U2OS, read-out: BRD2 (DMSO = 100), U2OS KO/Rescue cells, Log SJ46420 (uM) 2.49485, Rep1, Rep2
  remaining activity at 2.49485 µM: 66.6%
[1]; U2OS, read-out: BRD2 (DMSO = 100), U2OS KO/Rescue cells, Log SJ46420 (uM) 2.79588, Rep1, Rep2
  remaining activity at 2.79588 µM: 49.5%
[1]; U2OS, read-out: BRD2 (DMSO = 100), U2OS KO/Rescue cells, Log SJ46420 (uM) 3.09691, Rep1, Rep2
  remaining activity at 3.09691 µM: 30.5%
[1]; U2OS, read-out: BRD2 (DMSO = 100), U2OS KO/Rescue cells, Log SJ46420 (uM) 3.39794, Rep1, Rep2
  remaining activity at 3.39794 µM: 13.8%
[1]; U2OS, read-out: BRD2 (DMSO = 100), U2OS KO/Rescue cells, Log SJ46420 (uM) 3.69897, Rep1, Rep2
  remaining activity at 3.69897 µM: 1.16%
[1]; U2OS, read-out: BRD2 Dmax, U2OS KO/Rescue, 24 h dose
  Dmax: 99.3%
[1]; U2OS, read-out: BRD2 level, Western blot quantification (DMSO = 100), Fig 6b, U2OS, 5 uM
  remaining activity at 5 µM: 90.7%
[1]; U2OS, read-out: BRD2 level, Western blot quantification (DMSO = 100), Fig S6i, U2OS, 5uM
  remaining activity at 5 µM: 118%
[1]; [5]
  remaining activity at 0.156 µM: 83.3%
  remaining activity at 0.313 µM: 100%
  remaining activity at 0.625 µM: 81.2%
  remaining activity at 1.25 µM: 85.7%
[1]; U2OS, read-out: BRD2 level, Western blot quantification (DMSO = 100), Fig S6d, U2OS KO/rescue Dose Response, 2.5 uM
  remaining activity at 2.5 µM: 86.6%
[1]; U2OS, read-out: BRD2 level, Western blot quantification (DMSO = 100), Fig S6d, U2OS KO/rescue Dose Response, 5 uM
  remaining activity at 5 µM: 86.5%
[1]; read-out: BRD2 Dmax, PC3, 24 h dose
  Dmax: 19.5%
[1]; read-out: BRD2 level, Western blot quantification (DMSO = 100), Fig 6b, KO/Rescue, 5 uM
  remaining activity at 5 µM: 78.2%
[1]; [6]
  remaining activity at 0.156 µM: 99%
  remaining activity at 0.313 µM: 82.2%
  remaining activity at 0.625 µM: 66.6%
  remaining activity at 1.25 µM: 49.5%
[1]; read-out: BRD2 level, Western blot quantification (DMSO = 100), Fig S6e, PC3 KO/rescue Dose Response, 2.5 uM
  remaining activity at 2.5 µM: 30.5%
[1]; read-out: BRD2 level, Western blot quantification (DMSO = 100), Fig S6e, PC3 KO/rescue Dose Response, 5 uM
  remaining activity at 5 µM: 13.8%
[1]; read-out: BRD2 level, Western blot quantification (DMSO = 100), Fig S6e, PC3 KO/rescue Dose Response, 10uM
  remaining activity at 10 µM: 1.16%
[2]
  degrader dependent decrease in BRD protein levels in lysate: did not observe a degrader dependent decrease
[3]
  ubiquitylation of BRD3BD2 in reconstituted biochemical assays: unable to promote ubiquitylation
[4]; 22Rv1
  selectivity for BRD3 over BRD4 (DC50): ~ 44 fold
[4]; 22Rv1, 24 h, read-out: BRD3 level relative to DMSO (100%), 22Rv1, 0.16µM, 24 h, Fig S6f
  remaining activity at 0.16 µM: 74 ± 4.4%
